This passage reports IC50 results from ChEMBL document CHEMBL4732133 (Eur J Med Chem, 2021).

Each structure is given as a SMILES string. Bounds are passed on as bounds.

Experiment [1] can be described thus: Inhibition of Influenza A virus (A/Puerto Rico/8/1934(H1N1)) neuraminidase using 4-MU-NANA as substrate preincubated for 5 mins followed by substrate addition and measured after 30 to 60 mins by fluorescence assay.
A short description of experiment [2]: Inhibition of Influenza A virus (A/California/04/2009(H1N1)) neuraminidase using 4-MU-NANA as substrate preincubated for 5 mins followed by substrate addition and measured after 30 to 60 mins by fluorescence assay.
Experiment [3] can be described thus: Inhibition of Influenza A virus (A/Babol/36/2005 (H3N2)) neuraminidase using 4-MU-NANA as substrate preincubated for 5 mins followed by substrate addition and measured after 30 to 60 mins by fluorescence assay.
Experiment [4] can be described thus: Inhibition of Influenza A virus (A/goose/Guangdong/SH7/2013(H5N1)) neuraminidase using 4-MU-NANA as substrate preincubated for 5 mins followed by substrate addition and measured after 30 to 60 mins by fluorescence assay. On the set-up: species or system H5N1 subtype.
Experiment [5] can be described thus: Inhibition of Influenza A virus (A/Chicken/Hebei/UR/2014(H5N2)) neuraminidase using 4-MU-NANA as substrate preincubated for 5 mins followed by substrate addition and measured after 30 to 60 mins by fluorescence assay.

Consider `CCC(CC)O[C@@H]1C=C(C(=O)O)C[C@H](NCc2ccc(Oc3ccccc3OC)cc2)[C@H]1NC(C)=O`, for which the IC50 (usually the midpoint of a concentration-inhibition curve) is 860 nM in experiment [1]; 2200 nM in experiment [2]; 24.3 µM in experiment [3]; 920 nM in experiment [4]; 16.3 µM in experiment [5].

As to `CCC(CC)O[C@@H]1C=C(C(=O)O)C[C@H](NCc2ccc(Oc3cccc(F)c3)cc2)[C@H]1NC(C)=O`, the half-inhibitory concentration (IC50) in experiment [1] was 1440 nM; in experiment [2], 2260 nM; in experiment [3] it was 12.4 µM; in experiment [4] it was 910 nM; in experiment [5] it was 12.8 µM.

Consider `CCC(CC)O[C@@H]1C=C(C(=O)O)C[C@H](NCc2ccc(Oc3cccc(C)c3)cc2)[C@H]1NC(C)=O`, for which the IC50 amounted to 990 nM in experiment [1]; 1680 nM in experiment [2]; 9.21 µM in experiment [3]; 490 nM in experiment [4]; 12.8 µM in experiment [5].

`CCC(CC)O[C@@H]1C=C(C(=O)O)C[C@H](NCc2ccc(OCc3ccccc3OC)cc2)[C@H]1NC(C)=O`: the IC50 was found to be 7640 nM in experiment [1]; 13500 nM in experiment [2]; 38.7 µM in experiment [3]; 1310 nM in experiment [4]; 26.6 µM in experiment [5].

`CCC(CC)O[C@@H]1C=C(C(=O)O)C[C@H](NCc2ccc(Oc3ccc(F)cc3)cc2)[C@H]1NC(C)=O`: the IC50 in experiment [1] stood at 2040 nM; in experiment [2] it was 3410 nM; in experiment [3] it was 11.6 µM; in experiment [4] it was 780 nM; in experiment [5] it was 12.7 µM.

As for `CCC(CC)O[C@@H]1C=C(C(=O)O)C[C@H](NCc2ccc(OCc3cccc(B4OC(C)(C)C(C)(C)O4)c3)cc2)[C@H]1NC(C)=O`, the concentration for half-maximal inhibition (IC50) in experiment [1] was 160 nM; in experiment [2], 550 nM; in experiment [3] it was more than 40 µM; in experiment [4], 98 nM; in experiment [5] it was 13.4 µM.

Consider `CCC(CC)O[C@@H]1C=C(C(=O)O)C[C@H](NCc2ccc(O[C@@H](C)c3ccccc3)cc2)[C@H]1NC(C)=O`, for which the half-maximal inhibitory concentration (IC50) is 12200 nM in experiment [1]; 23400 nM in experiment [2]; more than 100 µM in experiment [3]; 7120 nM in experiment [4]; 21 µM in experiment [5].

As to `CCC(CC)O[C@@H]1C=C(C(=O)O)C[C@H](NCc2ccc(SCc3ccc(F)cc3)cc2)[C@H]1NC(C)=O`, the IC50 in experiment [1] was 770 nM; in experiment [2] it was 1480 nM; in experiment [3], 23.7 µM; in experiment [4], 900 nM; in experiment [5], 16.5 µM.

`CCC(CC)O[C@@H]1C=C(C(=O)O)C[C@H](NCc2ccc(OCc3cccc(F)c3)cc2)[C@H]1NC(C)=O`: the IC50 in experiment [1] worked out at 710 nM; in experiment [2], 690 nM; in experiment [3], 18.8 µM; in experiment [4] it was 580 nM; in experiment [5], 33.3 µM.

With `CCC(CC)O[C@@H]1C=C(C(=O)O)C[C@H](NCc2ccc(OCc3ccc(OC)cc3)cc2)[C@H]1NC(C)=O`, the half-inhibitory concentration (IC50) worked out at 1620 nM in experiment [1]; 900 nM in experiment [2]; 26.7 µM in experiment [3]; 730 nM in experiment [4]; 34.4 µM in experiment [5].

In the case of `CCC(CC)O[C@@H]1C=C(C(=O)O)C[C@H](NCc2ccc(OCC3CCCCC3)cc2)[C@H]1NC(C)=O`, the half-inhibitory concentration (IC50) in experiment [1] was found to be 7080 nM; in experiment [2], 19600 nM; in experiment [3], 8.4 µM; in experiment [4], 10500 nM; in experiment [5] it was 13.5 µM.

With `CCC(CC)O[C@@H]1C=C(C(=O)O)C[C@H](NCc2ccc(NCc3ccccc3)cc2)[C@H]1NC(C)=O`, the IC50 in experiment [1] amounted to 380 nM; in experiment [2], 770 nM; in experiment [3], 0.3 µM; in experiment [4] it was 1520 nM; in experiment [5], 0.59 µM.

Take `CCC(CC)O[C@@H]1C=C(C(=O)O)C[C@H](NCc2ccc(OCc3ccc(F)cc3)cc2)[C@H]1NC(C)=O`: the IC50 was found to be 1290 nM in experiment [1]; 650 nM in experiment [2]; 14.9 µM in experiment [3]; 460 nM in experiment [4]; 22.6 µM in experiment [5].

In the case of `CCC(CC)O[C@@H]1C=C(C(=O)O)C[C@H](NCc2ccc(OCc3ccc(C#N)cc3)cc2)[C@H]1NC(C)=O`, the IC50 was 410 nM in experiment [1]; 410 nM in experiment [2]; 20.9 µM in experiment [3]; 420 nM in experiment [4]; 13.7 µM in experiment [5].

`CCC(CC)O[C@@H]1C=C(C(=O)O)C[C@H](NCc2ccc(OCc3ccc(SC)cc3)cc2)[C@H]1NC(C)=O`: the half-maximal inhibitory concentration (IC50) was determined as 1480 nM in experiment [1]; 4020 nM in experiment [2]; 13.7 µM in experiment [3]; 980 nM in experiment [4]; 11.6 µM in experiment [5].

As for `CCC(CC)O[C@@H]1C=C(C(=O)O)C[C@H](NCc2ccc(OCc3ccccc3F)cc2)[C@H]1NC(C)=O`, the IC50 turned out to be 480 nM in experiment [1]; 480 nM in experiment [2]; 44.5 µM in experiment [3]; 300 nM in experiment [4]; 46.6 µM in experiment [5].

As to `CCC(CC)O[C@@H]1C=C(C(=O)O)C[C@H](NCc2ccc(OCc3cccc(C)c3)cc2)[C@H]1NC(C)=O`, the IC50 in experiment [1] amounted to 310 nM; in experiment [2], 1210 nM; in experiment [3], 21.5 µM; in experiment [4] it was 510 nM; in experiment [5], 30.9 µM.

As to `CCC(CC)O[C@@H]1C=C(C(=O)O)C[C@H](NCc2ccc(NCc3ccc(F)cc3)cc2)[C@H]1NC(C)=O`, the 50% inhibitory concentration (IC50) in experiment [1] was determined as 960 nM; in experiment [2] it was 1070 nM; in experiment [3], 0.48 µM; in experiment [4] it was 2110 nM; in experiment [5], 0.86 µM.

`CCC(CC)O[C@@H]1C=C(C(=O)O)C[C@H](NCc2ccc(Oc3cccc(OC)c3)cc2)[C@H]1NC(C)=O`: the IC50 in experiment [1] stood at 870 nM; in experiment [2], 1950 nM; in experiment [3], 12.5 µM; in experiment [4], 460 nM; in experiment [5], 13.6 µM.

In the case of `CCC(CC)O[C@@H]1C=C(C(=O)O)C[C@H](NCc2ccc(OCc3ccccc3C#N)cc2)[C@H]1NC(C)=O`, the IC50 was 22900 nM in experiment [1]; 21400 nM in experiment [2]; more than 100 µM in experiment [3]; 1370 nM in experiment [4]; 61.1 µM in experiment [5].

In the case of `CCC(CC)O[C@@H]1C=C(C(=O)O)C[C@H](NCc2ccc(OCC3CCC3)cc2)[C@H]1NC(C)=O`, the IC50 is 7770 nM in experiment [1]; 47500 nM in experiment [2]; 84.2 µM in experiment [3]; 6000 nM in experiment [4]; 58.2 µM in experiment [5].

For the compound `CCC(CC)O[C@@H]1C=C(C(=O)O)C[C@H](NCc2ccc(O[C@H](C)c3ccccc3)cc2)[C@H]1NC(C)=O`, the half-inhibitory concentration (IC50) in experiment [1] amounted to 8020 nM; in experiment [2] it was 19600 nM; in experiment [3], 56.1 µM; in experiment [4], 3670 nM; in experiment [5] it was 11.9 µM.

Consider `CCC(CC)O[C@@H]1C=C(C(=O)O)C[C@H](NCc2ccc(OCc3cccc(C#N)c3)cc2)[C@H]1NC(C)=O`, for which the IC50 was found to be 1460 nM in experiment [1]; 2560 nM in experiment [2]; 22.2 µM in experiment [3]; 340 nM in experiment [4]; 27 µM in experiment [5].

Turning to `CCC(CC)O[C@@H]1C=C(C(=O)O)C[C@H](NCc2ccc(OCc3ccccc3C)cc2)[C@H]1NC(C)=O`, the 50% inhibitory concentration (IC50) in experiment [1] was 1230 nM; in experiment [2] it was 4730 nM; in experiment [3], more than 100 µM; in experiment [4], 1880 nM; in experiment [5], 38.6 µM.

Consider `CCC(CC)O[C@@H]1C=C(C(=O)O)C[C@H](NCc2ccc(OCC3CC3)cc2)[C@H]1NC(C)=O`, for which the IC50 in experiment [1] is 10100 nM; in experiment [2], 33000 nM; in experiment [3], more than 100 µM; in experiment [4], 1680 nM; in experiment [5] it was 71.2 µM.

For the compound `CCC(CC)O[C@@H]1C=C(C(=O)O)C[C@H](NCc2ccc(Oc3ccccc3C)cc2)[C@H]1NC(C)=O`, the IC50 in experiment [1] amounted to 450 nM; in experiment [2], 570 nM; in experiment [3], 34.4 µM; in experiment [4] it was 310 nM; in experiment [5], 33.7 µM.

Take `CCC(CC)O[C@@H]1C=C(C(=O)O)C[C@H](NCc2ccc(SCc3ccccc3)cc2)[C@H]1NC(C)=O`: the concentration for half-maximal inhibition (IC50) in experiment [1] worked out at 450 nM; in experiment [2] it was 640 nM; in experiment [3], 22.3 µM; in experiment [4], 370 nM; in experiment [5] it was 26.1 µM.

As for `CCC(CC)O[C@@H]1C=C(C(=O)O)C[C@H](NCc2ccc(/C=C/c3ccccc3)cc2)[C@H]1NC(C)=O`, the IC50 is 690 nM in experiment [1]; 440 nM in experiment [2]; 4.78 µM in experiment [3]; 260 nM in experiment [4]; 10.6 µM in experiment [5].

`CCC(CC)O[C@@H]1C=C(C(=O)O)C[C@H](NCc2ccc(SCc3ccc(OC)cc3)cc2)[C@H]1NC(C)=O`: the half-inhibitory concentration (IC50) in experiment [1] stood at 740 nM; in experiment [2], 1700 nM; in experiment [3], 24.7 µM; in experiment [4] it was 780 nM; in experiment [5], 49.6 µM.

With `CCC(CC)O[C@@H]1C=C(C(=O)O)C[C@H](NCc2ccc(Oc3ccc(OC)cc3)cc2)[C@H]1NC(C)=O`, the 50% inhibitory concentration (IC50) in experiment [1] was 12200 nM; in experiment [2], 14300 nM; in experiment [3], 24.4 µM; in experiment [4], 1130 nM; in experiment [5], 28.5 µM.

Take `CCC(CC)O[C@@H]1C=C(C(=O)O)C[C@H](NCc2ccc(OCc3ccc(C)cc3)cc2)[C@H]1NC(C)=O`: the IC50 was 730 nM in experiment [1]; 1450 nM in experiment [2]; 27.1 µM in experiment [3]; 730 nM in experiment [4]; 36.4 µM in experiment [5].

With `CCC(CC)O[C@@H]1C=C(C(=O)O)C[C@H](NCc2ccc(C#Cc3ccccc3)cc2)[C@H]1NC(C)=O`, the IC50 amounted to 3670 nM in experiment [1]; 27600 nM in experiment [2]; 9.9 µM in experiment [3]; 12000 nM in experiment [4]; 17.8 µM in experiment [5].
